Legend:
HEK293 cells = assay: HEK293 viability assay (resazurin); format: cell-based, human; conditions: HEK293, 72 hr, top concentration 40 μM, n = 3
Description: To assess cytotoxicity of compounds in dose response, a resazurin-based assay was utilized to determine cell viability. In brief, HEK293 cells were grown in DMEM medium (Life Technologies) containing 10% foetal calf serum (FCS; Gibco). Cells were trypsinized, counted and seeded at 2,000 cells per well in 45 μl media into TC-treated 384-well plates (Falcon) and left to adhere overnight at 37°C, 5% CO2 and 95% humidity.
Test compounds were prepared as described above, to give a top final test concentration of 40 μM, 0.4% DMSO. Plates were incubated for 72 hr at 37°C, 5% CO2 and 95% humidity, then the media was removed and replaced by 35 μl of 44 μM resazurin in DMEM without FCS. The plates were incubated for another 4-6 hr at 37°C, 5% CO2 and 95% humidity before reading on an EnVision® Plate Reader (PerkinElmer) using fluorescence excitation/emission settings of 530 nm/595 nm. Determination of the% growth compared to controls (40 μM puromycin as positive and 0.4% DMSO as negative control) was performed in Microsoft® Excel 2010. Statistical analysis including IC50 determination and graphical output was performed in GraphPad Prism® 5 using nonlinear regression variable slope curve fitting.

[1] = system: P. falciparum CoA synthesis pathway; assay: Coenzyme A chemical rescue assay on P. falciparum; format: cell-based, Plasmodium falciparum; conditions: for IC50 shift upon CoA supplementation: eight-point dose response, fixed CoA (0.8-2 mM), n = 2
Description: The well-established P. falciparum imaging assay was modified to allow assessment of chemical rescue with CoA. In brief, sorbitol (5% w/v) synchronization was performed twice, approximately 8 hr apart, on each synchronization day for two consecutive ring cycles, i.e., on day 1 and 3 of assay preparation. On day 2 the culture was split to approximately 2% trophozoite parasitaemia. On day 4 the culture was split to 1-1.5% trophozoite parasitaemia, which yielded approximately 8% ring parasitaemia after 48 hr (on day 5, i.e., the day of the assay set-up). Compound stocks (10 mM in 100% DMSO) were diluted 1:25 in sterile water, less than 24 hr prior to use. An additional 1:10 dilution was performed, resulting in a 1:250 overall compound dilution and a final DMSO concentration of 0.4%. For initial screening, compounds were tested at a final 2 μM concentration. […] The known P. falciparum CoA synthesis inhibitor, panthenol, was prepared as a 100 mM solution in 4% DMSO. The final concentration of the dose response curve of panthenol started at 10 mM and was serially diluted down to 100 nM. CoA was dissolved in water. […] Five μl of the 1:25 diluted test compound or control solutions were added to 384-well CellCarrier imaging plates (PerkinElmer). For the chemical rescue, 5 μl of CoA solution were added to ‘rescue’ wells and 5 μl water to all control and reference wells, respectively. Parasite culture was added to a final concentration of 1% parasitaemia (% P) and 0.3% haematocrit (% H). Plates were incubated for 72 hr at 37°C, 5% CO2 and 95% humidity. On day 8 the permeabilization and nuclear staining buffer was prepared in PBS containing 10 μg/ml saponin, 0.01% triton X, 5 mM EDTA (all: Sigma) and 0.5 μg/ml 4′,6-diamidino-2-phenylindole (DAPI; Life Technologies). The plates were left for at least 4 hr (typically overnight), before confocal imaging on an Opera™ High Content Screening Platform (PerkinElmer) at 405 nm excitation with a 20x water objective. Automated primary image analysis was performed concurrent with the imaging process, utilizing an Acapella® software (PerkinElmer) script to determine the number of parasites based on object size and fluorescence intensity. Determination of the % growth compared to controls (2 μM artemisinin as positive and 0.4% DMSO as negative control) was performed in Microsoft® Excel 2010. Statistical analysis including IC50 determination and graphical output was performed in GraphPad Prism® 5 using non-linear regression variable slope curve fitting. Cell-based high throughput screening (HTS) entails the distinct benefit that positive hits have already proven effective against the live parasite within its natural host erythrocyte environment. Modifications of an image-based assay were undertaken to identify compounds that interfere with the P. falciparum CoA pathway. The modification involved a chemical rescue approach adapted from a similar method used to investigate apicoplast function. The principle idea of the chemical rescue approach is that supplementation of an unbranched pathway’s end product – in this case CoA - should abrogate, or at least alleviate, negative growth effects of compounds inhibiting any step in the pathway. […] To identify new potential CoA synthesis inhibitors, the CoA chemical rescue approach was used to screen 144 compounds with known antiplasmodial activity identified by HTS in the Avery laboratory, in addition to the MMV malaria box. […] Compounds which rescued growth to at least 50% of control values and two-fold difference compared to treatment alone, were regarded as partial rescue hits.

[2] = at 2 μM compound, with CoA supplementation
[3] = compound at ~ IC80, with CoA supplementation

SMILES	IC50 (HEK293 cells)	CoA rescue (relative parasite number, % of untreated control) [1, 2]	IC50 shift upon CoA supplementation [1]	CoA rescue hit confirmation ([1]; retest)	CoA rescue (relative parasite number, % of untreated control) [1, 3]
COc1ccc2c(=O)cc(C(Cl)(Cl)Cl)oc2c1 [MMV665820/5534045]	3.6 µM	80% rescue at 2 μM	greater than six times	confirmed as a hit	–
CC(=O)c1ccc2c3c(onc13)-c1ccccc1C2=O [Amb3377585]	2.75 µM	–	greater than six times	–	50% rescue at ~ IC80
CC1=CC(=O)C(C(C)C)=C/C1=N/OS(=O)(=O)c1ccccc1 [STK 740987]	> 40 µM	50% rescue at 2 μM	greater than six times	–	–
Cc1csc(Sc2ncnc3sccc23)n1 [Amb180780]	~40 µM	–	greater than six times	–	80% rescue at ~ IC80
CCOc1ccc(Nc2c3ccccc3nc3ccccc23)cc1.Cl [MMV000304/Amb636705]	1 µM	80% rescue at 2 μM	1.5 times	–	–
CC(C)=NOC(=O)c1c(C)noc1-c1snnc1C [SPB03400]	> 40 µM	–	1.5 times	–	50% rescue at ~ IC80
CCc1ccc(Nc2cc(C)c3ccc(O)cc3n2)cc1.Cl [MMV000570/C614-0191]	~40 µM	–	more than doubled	–	80% rescue at ~ IC80
